Measurements reported in ChEMBL document CHEMBL4507291 (2021).

Legend:
[1] = test system: Tyrosine-protein kinase ABL1 (Homo sapiens), P00519 [F317L]
[2] = target: Death-associated protein kinase 1 (Homo sapiens) (UniProt P53355)
[3] = target: Eukaryotic translation initiation factor 2-alpha kinase 1 (Homo sapiens) (UniProt Q9BQI3)
[4] = target: T1, G protein-coupled receptor kinase 3 (Homo sapiens) (UniProt P35626)
T1 sequence (whole entry): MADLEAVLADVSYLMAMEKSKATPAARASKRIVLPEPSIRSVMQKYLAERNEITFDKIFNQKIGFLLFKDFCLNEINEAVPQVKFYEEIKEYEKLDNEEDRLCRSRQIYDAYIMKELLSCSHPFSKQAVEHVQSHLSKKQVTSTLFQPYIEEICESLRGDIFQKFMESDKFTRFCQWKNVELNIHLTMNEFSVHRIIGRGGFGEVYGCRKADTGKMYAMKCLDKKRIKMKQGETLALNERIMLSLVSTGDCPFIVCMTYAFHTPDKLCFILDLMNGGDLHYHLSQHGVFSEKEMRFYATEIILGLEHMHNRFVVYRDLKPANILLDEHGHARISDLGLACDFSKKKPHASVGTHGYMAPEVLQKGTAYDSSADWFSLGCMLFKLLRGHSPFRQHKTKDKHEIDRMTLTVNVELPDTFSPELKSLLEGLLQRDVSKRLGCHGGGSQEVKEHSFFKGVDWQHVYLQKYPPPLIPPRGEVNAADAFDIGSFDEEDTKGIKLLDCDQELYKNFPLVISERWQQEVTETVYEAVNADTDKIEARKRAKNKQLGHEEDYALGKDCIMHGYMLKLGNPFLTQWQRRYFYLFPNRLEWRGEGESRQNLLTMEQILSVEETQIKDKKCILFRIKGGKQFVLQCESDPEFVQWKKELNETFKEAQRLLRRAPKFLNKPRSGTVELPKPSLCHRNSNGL

[5] = target: Insulin receptor-related protein (Homo sapiens) (UniProt P14616)
[6] = target: Tyrosine-protein kinase Lck (Homo sapiens) (UniProt P06239)
[7] = target: Serine/threonine-protein kinase MAK (Homo sapiens) (UniProt P20794)
[8] = target: Serine/threonine-protein kinase Nek3 (Homo sapiens) (UniProt P51956)
[9] = target: Serine/threonine-protein kinase Nek6 (Homo sapiens) (UniProt Q9HC98)
[10] = target: Protein kinase C delta type (Homo sapiens) (UniProt Q05655)
[11] = target: T2, Protein kinase C epsilon type (Homo sapiens) (UniProt Q02156)
T2 sequence (whole entry): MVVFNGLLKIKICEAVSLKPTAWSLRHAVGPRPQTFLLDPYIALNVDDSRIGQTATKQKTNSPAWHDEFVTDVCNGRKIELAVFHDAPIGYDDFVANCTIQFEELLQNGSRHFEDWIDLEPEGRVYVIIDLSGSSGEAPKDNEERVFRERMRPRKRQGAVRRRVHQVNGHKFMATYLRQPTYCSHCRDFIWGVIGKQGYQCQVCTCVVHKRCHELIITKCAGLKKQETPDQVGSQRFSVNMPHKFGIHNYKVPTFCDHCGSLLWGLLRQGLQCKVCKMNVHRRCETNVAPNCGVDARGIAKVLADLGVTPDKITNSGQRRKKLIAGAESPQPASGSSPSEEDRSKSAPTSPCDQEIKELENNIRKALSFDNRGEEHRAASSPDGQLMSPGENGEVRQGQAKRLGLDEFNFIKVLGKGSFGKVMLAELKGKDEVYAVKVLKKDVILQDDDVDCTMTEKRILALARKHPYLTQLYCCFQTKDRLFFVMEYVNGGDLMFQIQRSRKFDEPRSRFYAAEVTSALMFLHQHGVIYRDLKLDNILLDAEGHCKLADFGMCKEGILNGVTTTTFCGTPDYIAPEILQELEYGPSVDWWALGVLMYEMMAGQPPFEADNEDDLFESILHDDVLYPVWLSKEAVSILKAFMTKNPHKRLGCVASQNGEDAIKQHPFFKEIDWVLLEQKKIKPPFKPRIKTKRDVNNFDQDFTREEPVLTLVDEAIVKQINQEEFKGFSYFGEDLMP

[12] = target: Receptor-interacting serine/threonine-protein kinase 4 (Homo sapiens) (UniProt P57078)
[13] = target: SRSF protein kinase 1 (Homo sapiens) (UniProt Q96SB4)
[14] = target: Serine/threonine-protein kinase tousled-like 2 (Homo sapiens) (UniProt Q86UE8)
[15] = target: TRAF2 and NCK-interacting protein kinase (Homo sapiens) (UniProt Q9UKE5)
[16] = target: BDNF/NT-3 growth factors receptor (Homo sapiens) (UniProt Q16620)
[17] = target: Serine/threonine-protein kinase VRK2 (Homo sapiens) (UniProt Q86Y07)
[18] = target: Serine/threonine-protein kinase WNK3 (Homo sapiens) (UniProt Q9BYP7)
[19] = target: 5-hydroxytryptamine receptor 1E (Homo sapiens) (UniProt P28566); conditions: Compound concentration 10.0 uM
[20] = Compound concentration 1000.0 nM
[21] = Compound concentration 100.0 nM

Chain of Serine/threonine-protein kinase tousled-like 2 (Homo sapiens) (Q86UE8 whole entry, looked up): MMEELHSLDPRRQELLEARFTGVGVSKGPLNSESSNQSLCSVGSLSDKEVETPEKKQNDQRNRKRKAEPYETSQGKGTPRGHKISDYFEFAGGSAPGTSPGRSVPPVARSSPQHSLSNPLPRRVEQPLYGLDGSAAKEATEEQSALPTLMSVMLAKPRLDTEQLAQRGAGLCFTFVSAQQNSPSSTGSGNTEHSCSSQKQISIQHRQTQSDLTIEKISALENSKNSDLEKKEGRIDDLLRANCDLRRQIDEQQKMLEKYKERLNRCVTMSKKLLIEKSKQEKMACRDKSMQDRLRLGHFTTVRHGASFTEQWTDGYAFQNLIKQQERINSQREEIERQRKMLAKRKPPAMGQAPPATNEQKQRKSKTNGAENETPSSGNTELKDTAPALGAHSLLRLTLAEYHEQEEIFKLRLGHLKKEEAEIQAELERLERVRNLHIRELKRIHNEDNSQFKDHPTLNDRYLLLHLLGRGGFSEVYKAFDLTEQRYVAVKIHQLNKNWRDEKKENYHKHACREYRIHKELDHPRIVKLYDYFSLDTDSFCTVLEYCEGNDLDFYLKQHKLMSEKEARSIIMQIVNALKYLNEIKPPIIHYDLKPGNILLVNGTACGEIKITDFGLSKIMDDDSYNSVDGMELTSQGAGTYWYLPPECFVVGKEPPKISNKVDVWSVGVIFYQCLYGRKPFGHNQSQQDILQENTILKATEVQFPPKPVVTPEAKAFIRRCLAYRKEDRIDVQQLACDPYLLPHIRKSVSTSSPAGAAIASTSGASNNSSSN
Chain of Serine/threonine-protein kinase Nek3 (Homo sapiens) (P51956 whole entry): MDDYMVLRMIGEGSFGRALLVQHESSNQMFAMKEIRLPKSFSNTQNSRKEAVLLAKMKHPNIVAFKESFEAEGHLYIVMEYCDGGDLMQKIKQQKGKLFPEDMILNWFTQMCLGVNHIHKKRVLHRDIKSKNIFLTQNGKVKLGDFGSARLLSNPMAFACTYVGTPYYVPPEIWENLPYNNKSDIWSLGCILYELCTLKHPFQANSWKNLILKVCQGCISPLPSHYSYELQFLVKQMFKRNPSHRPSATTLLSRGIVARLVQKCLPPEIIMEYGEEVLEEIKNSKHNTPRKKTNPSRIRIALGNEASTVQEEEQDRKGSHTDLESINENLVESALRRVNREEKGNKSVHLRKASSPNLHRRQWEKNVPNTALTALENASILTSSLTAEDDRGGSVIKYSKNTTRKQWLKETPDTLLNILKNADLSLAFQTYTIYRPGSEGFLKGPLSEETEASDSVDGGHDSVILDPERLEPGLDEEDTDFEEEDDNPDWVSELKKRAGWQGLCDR
Chain of Protein kinase C delta type (Homo sapiens) (Q05655 whole entry, looked up): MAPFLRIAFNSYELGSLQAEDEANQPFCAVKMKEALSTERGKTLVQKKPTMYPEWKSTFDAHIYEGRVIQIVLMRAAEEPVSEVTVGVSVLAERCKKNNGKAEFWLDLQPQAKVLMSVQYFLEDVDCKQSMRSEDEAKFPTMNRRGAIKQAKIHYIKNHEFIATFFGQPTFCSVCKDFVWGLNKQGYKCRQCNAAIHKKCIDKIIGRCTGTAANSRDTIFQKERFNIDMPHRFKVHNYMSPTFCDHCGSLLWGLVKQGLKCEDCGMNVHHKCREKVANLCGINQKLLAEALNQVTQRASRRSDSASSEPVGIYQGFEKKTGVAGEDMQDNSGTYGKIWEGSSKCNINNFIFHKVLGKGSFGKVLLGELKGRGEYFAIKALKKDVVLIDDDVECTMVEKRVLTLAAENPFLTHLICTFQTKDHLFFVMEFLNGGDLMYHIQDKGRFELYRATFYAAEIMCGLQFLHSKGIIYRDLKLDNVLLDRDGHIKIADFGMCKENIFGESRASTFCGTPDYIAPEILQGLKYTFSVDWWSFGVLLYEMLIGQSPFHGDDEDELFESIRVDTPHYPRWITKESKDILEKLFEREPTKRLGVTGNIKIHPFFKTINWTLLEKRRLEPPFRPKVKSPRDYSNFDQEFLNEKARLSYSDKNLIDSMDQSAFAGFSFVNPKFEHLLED
Chain of Serine/threonine-protein kinase WNK3 (Homo sapiens) (Q9BYP7 whole entry): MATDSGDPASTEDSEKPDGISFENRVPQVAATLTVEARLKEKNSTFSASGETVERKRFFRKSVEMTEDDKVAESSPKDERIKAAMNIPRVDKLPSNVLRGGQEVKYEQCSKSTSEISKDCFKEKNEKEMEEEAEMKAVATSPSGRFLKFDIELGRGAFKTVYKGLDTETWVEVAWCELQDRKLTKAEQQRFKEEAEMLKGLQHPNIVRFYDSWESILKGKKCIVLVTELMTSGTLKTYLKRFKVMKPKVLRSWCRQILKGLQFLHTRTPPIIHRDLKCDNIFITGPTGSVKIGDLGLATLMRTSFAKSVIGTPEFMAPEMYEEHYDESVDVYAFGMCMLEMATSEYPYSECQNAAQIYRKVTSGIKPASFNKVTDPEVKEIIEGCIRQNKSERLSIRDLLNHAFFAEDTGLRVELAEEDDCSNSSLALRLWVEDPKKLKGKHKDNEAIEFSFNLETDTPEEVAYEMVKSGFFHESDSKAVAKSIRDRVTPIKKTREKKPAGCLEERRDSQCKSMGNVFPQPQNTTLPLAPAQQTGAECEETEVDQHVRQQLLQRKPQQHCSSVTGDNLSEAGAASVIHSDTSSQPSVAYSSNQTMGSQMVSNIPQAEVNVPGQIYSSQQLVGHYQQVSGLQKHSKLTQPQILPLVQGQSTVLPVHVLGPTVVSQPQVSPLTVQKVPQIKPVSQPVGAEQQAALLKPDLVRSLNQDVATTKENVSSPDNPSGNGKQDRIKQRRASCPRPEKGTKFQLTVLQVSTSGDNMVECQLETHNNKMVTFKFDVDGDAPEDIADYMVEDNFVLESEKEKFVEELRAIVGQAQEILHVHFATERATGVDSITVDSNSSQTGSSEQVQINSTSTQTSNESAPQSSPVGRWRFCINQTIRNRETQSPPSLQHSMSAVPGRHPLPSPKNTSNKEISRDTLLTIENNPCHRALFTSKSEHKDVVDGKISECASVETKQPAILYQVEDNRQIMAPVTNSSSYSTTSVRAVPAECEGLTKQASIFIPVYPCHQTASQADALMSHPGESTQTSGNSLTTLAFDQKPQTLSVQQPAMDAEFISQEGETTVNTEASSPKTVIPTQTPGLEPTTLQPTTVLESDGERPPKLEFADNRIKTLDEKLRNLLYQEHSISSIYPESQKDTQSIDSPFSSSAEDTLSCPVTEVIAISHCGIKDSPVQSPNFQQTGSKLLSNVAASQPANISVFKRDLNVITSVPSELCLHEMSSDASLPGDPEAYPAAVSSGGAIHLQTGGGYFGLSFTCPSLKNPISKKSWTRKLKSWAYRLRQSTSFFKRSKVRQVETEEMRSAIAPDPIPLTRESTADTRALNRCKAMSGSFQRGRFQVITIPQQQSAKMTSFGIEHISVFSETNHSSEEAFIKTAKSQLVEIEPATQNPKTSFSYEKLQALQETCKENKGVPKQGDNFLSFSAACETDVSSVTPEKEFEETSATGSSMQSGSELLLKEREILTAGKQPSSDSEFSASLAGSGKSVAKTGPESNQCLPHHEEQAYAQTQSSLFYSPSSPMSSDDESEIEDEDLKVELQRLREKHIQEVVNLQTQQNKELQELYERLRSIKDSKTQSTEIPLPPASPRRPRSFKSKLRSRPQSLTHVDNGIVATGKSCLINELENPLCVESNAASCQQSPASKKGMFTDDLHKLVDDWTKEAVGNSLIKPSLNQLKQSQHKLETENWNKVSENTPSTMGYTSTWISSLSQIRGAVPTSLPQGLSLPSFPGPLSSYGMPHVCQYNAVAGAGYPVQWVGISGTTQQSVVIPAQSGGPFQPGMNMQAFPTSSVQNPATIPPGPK
Chain of Serine/threonine-protein kinase MAK (Homo sapiens) (P20794 whole entry): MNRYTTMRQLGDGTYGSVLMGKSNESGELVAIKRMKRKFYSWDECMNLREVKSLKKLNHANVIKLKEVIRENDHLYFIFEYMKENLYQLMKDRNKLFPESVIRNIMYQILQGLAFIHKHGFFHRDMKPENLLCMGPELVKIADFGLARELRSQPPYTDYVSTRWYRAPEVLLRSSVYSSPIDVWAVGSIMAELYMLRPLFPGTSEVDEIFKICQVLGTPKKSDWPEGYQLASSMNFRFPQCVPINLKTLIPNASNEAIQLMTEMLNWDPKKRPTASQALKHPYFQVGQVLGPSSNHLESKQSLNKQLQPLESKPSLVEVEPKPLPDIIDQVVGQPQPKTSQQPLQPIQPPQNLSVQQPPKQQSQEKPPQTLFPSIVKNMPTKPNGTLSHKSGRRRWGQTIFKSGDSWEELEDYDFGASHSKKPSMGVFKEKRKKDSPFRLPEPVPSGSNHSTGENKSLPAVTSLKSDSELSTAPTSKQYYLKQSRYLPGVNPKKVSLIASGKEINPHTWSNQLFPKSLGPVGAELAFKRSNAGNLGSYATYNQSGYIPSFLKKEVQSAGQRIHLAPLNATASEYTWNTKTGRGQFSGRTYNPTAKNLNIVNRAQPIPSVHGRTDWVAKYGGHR
Chain of Serine/threonine-protein kinase VRK2 (Homo sapiens) (Q86Y07 whole entry): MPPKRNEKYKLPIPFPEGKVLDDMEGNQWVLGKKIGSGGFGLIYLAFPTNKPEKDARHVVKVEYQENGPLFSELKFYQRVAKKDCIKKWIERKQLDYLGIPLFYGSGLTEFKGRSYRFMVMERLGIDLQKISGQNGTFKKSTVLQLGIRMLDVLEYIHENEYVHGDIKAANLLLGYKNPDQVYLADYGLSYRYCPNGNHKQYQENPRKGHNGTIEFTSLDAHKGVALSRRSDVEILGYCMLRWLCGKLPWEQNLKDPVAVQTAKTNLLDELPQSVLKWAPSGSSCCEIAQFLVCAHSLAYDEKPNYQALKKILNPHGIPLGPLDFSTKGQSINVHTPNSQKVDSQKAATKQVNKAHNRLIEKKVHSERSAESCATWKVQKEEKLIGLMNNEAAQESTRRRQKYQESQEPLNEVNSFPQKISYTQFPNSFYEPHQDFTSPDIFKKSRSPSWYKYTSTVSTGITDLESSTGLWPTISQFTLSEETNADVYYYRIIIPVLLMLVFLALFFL

C[C@@H]1CN(c2cc(-c3nn(C)c4ccc(OC5(C)CC5)cc34)ncn2)C[C@H](C)O1 [MLi-2-NC]
inactive: residual activity [1, 20] 67% | residual activity [2, 20] 100% | residual activity [3, 20] 60% | residual activity [4, 20] 69% | residual activity [5, 20] 91% | residual activity [6, 20] 94% | residual activity [7, 20] 100% | residual activity [8, 20] 99% | residual activity [9, 20] 100% | residual activity [10, 20] 100% | residual activity [11, 20] 100% | residual activity [12, 20] 85% | residual activity [13, 20] 88% | residual activity [14, 20] 97% | residual activity [15, 20] 80% | residual activity [16, 20] 65% | residual activity [17, 20] 73% | residual activity [18, 20] 91% | inhibition [19] -0.18%

C[C@@H]1CN(c2cc(-c3n[nH]c4ccc(OC5(C)CC5)cc34)ncn2)C[C@H](C)O1 [MLi-2]
active: residual activity [12, 21] 48%
inactive: residual activity [1, 21] 73% | residual activity [2, 21] 93% | residual activity [3, 21] 100% | residual activity [4, 21] 91% | residual activity [5, 21] 57% | residual activity [6, 21] 100% | residual activity [7, 21] 95% | residual activity [8, 21] 76% | residual activity [9, 21] 100% | residual activity [10, 21] 100% | residual activity [11, 21] 95% | residual activity [13, 21] 100% | residual activity [14, 21] 100% | residual activity [15, 21] 100% | residual activity [16, 21] 67% | residual activity [17, 21] 65% | residual activity [18, 21] 73% | inhibition [19] -7.52%
